# Assay results: patent US10808003B2, “Amphipathic molecule based on tandem malonate and use thereof” (Industry-University Cooperation Foundation Hanyang …, priority 2017, dated 2020)
# “Also recorded” adds a separate entry of the source.
# Tests used:
# [1] = target: T1, human β2 adrenergic receptor (β2AR) (Homo sapiens, UniProt P07550); test: β2AR stability by [3H]-dihydroalprenolol (DHA) ligand binding assay; format: biochemical; details: CMC+0.2 wt %; for long-term maintenance of binding between β2AR and ligand: 7-day incubation at room temperature, FIG. 14b; for initial β2AR receptor activity ([3H]-DHA binding): FIG. 14a
# T1 construct: made in house; host or cells: cell membrane
# Procedure: Experiments for measuring stability of a human β2 adrenergic receptor (β2AR) and a G-protein-coupled receptor (GPCR) by TMGs were performed. A receptor was extracted from a cell membrane using 1% DDM and purified with a 0.1% amphipathic molecule. The receptor purified with the DDM was diluted with a buffer solution containing DDM or TMGs to adjust the final concentration of the compound to CMC+0.2 wt %. β2AR solubilized by each amphipathic molecule was stored for 7 days at room temperature, and the sample was incubated with 10 nM [^3H]-dihydroalprenolol (DHA) supplemented with 0.5 mg/ml BSA for 30 minutes at room temperature to evaluate a ligand-binding ability at regular intervals during the experimental period. The mixture was loaded onto a G-50 column, and a liquid running through the column was collected using 1 ml of a binding buffer (20 mM HEPES containing 0.5 mg/ml BSA and 20×CMC of each amphipathic molecule, pH 7.5, 100 mM NaCl). In addition, 15 ml of a scintillation fluid was added, and receptor-bound [^3H]-DHA was measured using a scintillation counter (Beckman). A binding degree of the [^3H]-DHA was shown by a column graph (FIG. 14). The experiment was repeated three times.
# [2] = target: T2, uric acid-xanthine/H+ symporter (UapA) (Emericella nidulans, UniProt Q07307, G411V); test: Thermal/structural stability of UapA by CPM fluorescence assay; format: biochemical, Aspergillus nidulans; details: CMC+0.2 wt %, 125 minutes at 40° C., FIG. 10
# T2 construct: GFP; made in house; host or cells: Saccharomyces cerevisiae FGY217
# Procedure: An experiment of measuring structural stability of a uric acid-xanthine/H+ symporter (UapA) separated from Aspergillus nidulans by TMG was performed. The structural stability of UapA was evaluated using a sulfhydryl-specific fluorophore and N-[4-(7-diethylamino-4-methyl-3-coumarinyl)phenyl]maleimide (CPM).
# Specifically, UapAG411V1-11 (hereinafter, referred to as “UapA”) expressed as a GFP fusion protein from a Saccharomyces cerevisiae FGY217 strain, and the protein was separated using a sample buffer (20 mM Tris (pH 7.5), 150 mM NaCl, 0.03% DDM, 0.6 mM xanthine) according to a method disclosed in the article written by J. Leung et al. (Mol. Membr. Biol. 2013, 30, 32-42). The protein having a molecular weight of 100 kDa was concentrated to approximately 10 mg/mL using a cut-off filter (Millipore). The protein was diluted with a buffer containing each of the TMG-As (TMG-A11, TMG-A12, TMG-A13 and TMG-A14), TMG-Ts (TMG-T11, TMG-T12, TMG-T13 and TMG-T14), MNG-3 or DDM at a ratio of 1:150 to reach the final concentration of CMC+0.04 wt % or CMC+0.2 wt % in a Greiner 96-well plate. A CPM dye (Invitrogen) stored in DMSO (Sigma) was diluted with a staining buffer (20 mM Tris (pH 7.5), 150 mM NaCl, 0.03% DDM, 5 mM EDTA), and 3 μL of the staining buffer was added to each sample. The reaction mixture was incubated at a constant temperature for 125 minutes at 40° C. Fluorescence emission was recorded using a microplate spectrofluorometer set to each of excitation and emission wavelengths of 387 nm and 463 nm. A relative amount of folded proteins was plotted over time using GraphPad Prism.
# [3] = Hydrodynamic radius of micelles by dynamic light scattering (DLS); format: physicochemical; details: micelles formed by each agent at 1.0 wt %
# Procedure: A method of measuring the radius of the micelles is not particularly limited, and any method well known in the art, for example, a DLS test may be used.
# (§1) Specifically, a CMC was measured using fluorescent staining and diphenylhexatriene (DPH), and the hydrodynamic radii (Rh) of micelles formed by each agent (1.0 wt %) were measured by a DLS test. The measured results were compared with those for the conventional amphipathic molecule (detergent), DDM, and thus are shown in Table 1.
# [4] = tested on: LeuT (leucine transporter); test: LeuT stability by [3H]-Leu substrate binding, scintillation proximity assay (SPA); format: biochemical, Aquifex aeolicus; details: TMGs or DDM at CMC+0.04 wt %, 10 days at room temperature
# Procedure: An experiment of measuring LeuT protein stability for TMGs and TMMs was performed. (a) CMC+0.04 wt % or (b) CMC+0.2 wt % of each amphipathic molecule was used, and the evaluation of the LeuT protein stability was performed by taking an advantage of a characteristic of LeuT binding to a substrate through a scintillation proximity assay (SPA) using [^3H]-Leu. […]
# Specifically, wild type LeuT (leucine transporter) derived from a thermophilic bacterium, Aquifex aeolicus, was purified by a previously-disclosed method (G. Deckert et al., Nature 1998, 392, 353-358). LeuT was expressed in E. coli C41 (DE3) transformed with pET16b encoding a C-terminus 8×His-tagged transporter (the expression plasmid was provided by Dr E. Gouaux, Vollum Institute, Portland, Oreg., USA). In summary, following isolation of a bacterial membrane and lysis with 1% (w/v) DDM, the protein was allowed to bind to a Ni^2+-NTA resin (Life Technologies, Denmark), and eluted in 20 mM Tris-HCl (pH 8.0), 1 mM NaCl, 199 mM KCl, 0.05% (w/v) DDM and 300 mM imidazole. Afterward, the purified LeuT (approximately 1.5 mg/ml) was diluted with the same buffer used above, from which DDM and imidazole were removed, and then supplemented with TMGs or DDM at the final concentration of CMC+0.04% (w/v). […] SPA was performed using a buffer containing 450 mM NaCl and each of the TMGs and TMMs at the predetermined concentration. The SPA reaction is performed in the presence of 20 nM [^3H]-Leucine and 1.25 mg/ml copper chelate (His-Tag) YSi beads (Perkin Elmer, Denmark). A total [^3H]-Leucine binding degree of each sample was measured using a MicroBeta liquid scintillation counter (Perkin Elmer).
# [5] = Critical micelle concentration by fluorescent staining with diphenylhexatriene (DPH); format: physicochemical; details: aqueous solution
# Procedure: A method of measuring CMC is not particularly limited, and any method well known in the art, for example, a fluorescent staining method using diphenylhexatriene (DPH) may be used.
# as §1
# [6] = target: T3, melibiose permease (MelBSt) (Salmonella typhimurium, UniProt P30878); test: MelBSt extraction and solubility at four temperatures, SDS-PAGE and western blotting; format: biochemical; details: 1.5 wt %, 90 minutes
# T3 construct: made in house; host or cells: E. coli DW2 cells (melB and lacZY), plasmid pK95AHB/WT MelBSt/CH10
# Procedure: An experiment was performed to measure structural stability of Salmonella typhimurium melibiose permease (MelBSt) protein by TMGs. The MelBSt protein was extracted from a membrane using TMGs or DDM, and then an amount of the extracted protein and its structure were analyzed by SDS-PAGE and western blotting. A concentration of the amphipathic molecule used was 1.5 wt %, and two types of performance such as protein extraction efficiency and stabilization ability of the compound were simultaneously evaluated by extracting the protein at four temperatures (0, 45, 55, and 65° C.), incubating the protein for 90 minutes at the same temperatures, and measuring an amount of the protein remaining dissolved in an aqueous solution. The amount of the protein extracted and stabilized by each amphipathic molecule was expressed as a relative value (%) with respect to a total amount of the protein contained in a membrane sample not treated with an amphipathic molecule.
# Specifically, Salmonella typhimurium MelBSt (melibiose permease) having a 10-His tag at the C-terminus was expressed in E. coli DW2 cells (melB and lacZY) using plasmid pK95AHB/WT MelBSt/CH10. According to the method disclosed in the article written by A. S. Ethayathulla et al. (Nat. Commun. 2014, 5, 2009), cell growth and membrane preparation were performed. A protein assay was performed using a Micro BCA kit (Thermo Scientific, Rockford, Ill.). Using the protocol disclosed in Nat. Methods 2010, 7, 1003-1008 written by P. S. Chae et al., DDM or TMGs were evaluated for MelBSt stability. A MelBSt-containing membrane sample (the final protein concentration was 10 mg/mL) was incubated at four temperatures (0, 45, 55 and 65° C.) for 90 minutes in a 1.5% (w/v) DDM or TMG-containing solubilization buffer (20 mM sodium phosphate, pH 7.5, 200 mM NaCl, 10% glycerol, 20 mM melibiose). To remove insoluble material, ultracentrifugation was performed using a Beckman Optima™ MAX ultracentrifuge equipped with a TLA-100 rotor at 355,590 g at 4° C. for 45 minutes, and then 20 μg of each protein sample was separated using SDS-15% PAGE, followed by immunoblotting using a Penta-His-HRP antibody (Qiagen, Germantown, Md.). MelBSt was measured by an ImageQuant LAS 4000 biomolecular imager (GE Health Care Life Sciences) using a SuperSignal West Pico chemiluminescent substrate.
# T2 sequence (Q07307 12-574 G411V): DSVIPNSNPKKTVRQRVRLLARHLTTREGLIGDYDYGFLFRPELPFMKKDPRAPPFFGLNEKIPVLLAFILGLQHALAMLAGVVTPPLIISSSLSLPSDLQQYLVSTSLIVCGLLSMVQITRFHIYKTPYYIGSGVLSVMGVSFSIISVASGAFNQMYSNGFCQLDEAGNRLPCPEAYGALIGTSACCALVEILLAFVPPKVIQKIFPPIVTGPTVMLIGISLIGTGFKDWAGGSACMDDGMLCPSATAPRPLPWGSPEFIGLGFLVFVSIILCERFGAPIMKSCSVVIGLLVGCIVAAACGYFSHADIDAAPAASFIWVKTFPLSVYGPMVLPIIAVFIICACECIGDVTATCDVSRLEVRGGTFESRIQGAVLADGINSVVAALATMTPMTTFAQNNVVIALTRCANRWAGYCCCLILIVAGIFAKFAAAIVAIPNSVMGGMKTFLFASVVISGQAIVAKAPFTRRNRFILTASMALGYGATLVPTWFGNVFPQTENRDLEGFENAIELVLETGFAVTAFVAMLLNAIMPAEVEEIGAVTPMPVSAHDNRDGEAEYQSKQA
# T1 sequence (P07550 whole entry): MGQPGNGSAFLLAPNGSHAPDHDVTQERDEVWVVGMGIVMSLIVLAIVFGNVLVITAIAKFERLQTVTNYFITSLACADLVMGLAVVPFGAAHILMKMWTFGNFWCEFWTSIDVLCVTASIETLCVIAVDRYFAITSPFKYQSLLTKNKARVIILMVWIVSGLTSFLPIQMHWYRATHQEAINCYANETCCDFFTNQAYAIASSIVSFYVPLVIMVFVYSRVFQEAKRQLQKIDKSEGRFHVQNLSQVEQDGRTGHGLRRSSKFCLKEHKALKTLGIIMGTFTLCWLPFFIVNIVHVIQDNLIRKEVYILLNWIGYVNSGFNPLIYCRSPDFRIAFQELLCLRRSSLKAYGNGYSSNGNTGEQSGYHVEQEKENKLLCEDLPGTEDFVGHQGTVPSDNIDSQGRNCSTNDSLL
# T3 sequence (P30878 whole entry): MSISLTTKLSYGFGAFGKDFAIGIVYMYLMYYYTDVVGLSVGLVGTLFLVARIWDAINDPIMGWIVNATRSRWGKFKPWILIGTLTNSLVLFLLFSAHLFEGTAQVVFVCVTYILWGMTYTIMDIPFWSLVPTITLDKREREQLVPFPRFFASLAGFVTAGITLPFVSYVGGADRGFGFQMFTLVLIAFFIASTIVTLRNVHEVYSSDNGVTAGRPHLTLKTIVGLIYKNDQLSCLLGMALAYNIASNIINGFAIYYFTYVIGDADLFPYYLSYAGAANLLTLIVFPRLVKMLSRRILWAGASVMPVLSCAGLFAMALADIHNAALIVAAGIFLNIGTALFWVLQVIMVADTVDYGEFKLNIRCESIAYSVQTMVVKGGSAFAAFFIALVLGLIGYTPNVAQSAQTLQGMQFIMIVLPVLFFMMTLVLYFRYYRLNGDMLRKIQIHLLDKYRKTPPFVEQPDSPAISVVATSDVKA
SMILES,long-term maintenance of binding between β2AR and ligand [1],ability to conserve UapA transporter in a folded state [2],"Rh (nm), hydrodynamic radius of micelles [3]",substrate-binding ability of LeuT [4],CMC [5],CMC (wt %) [5],amount of MelBSt solubilized / extraction efficiency ([6]; 45° C.),amount of MelBSt solubilized / extraction efficiency ([6]; 55° C.),initial β2AR receptor activity ([3H]-DHA binding) [1]
CCCCCCCCCCCCCCOCC(CO[C@@H]1OC(CO)[C@@H](O)C(O)C1O)(CO[C@@H]1OC(CO)[C@@H](O)C(O)C1O)CSCC(COCCCCCCCCCCCCCC)(CO[C@@H]1OC(CO)[C@@H](O)C(O)C1O)CO[C@@H]1OC(CO)[C@@H](O)C(O)C1O (stereo partly drawn) [TMG-T14],superior to DDM in terms of long-term maintenance of binding between the receptor and the ligand; also recorded: most excellent in maintenance of binding between a receptor and a ligand,excellent effect of stabilizing transporter folding,3.8 ± 0.09 nm,a better characteristic than DDM,~0.004 mM,~0.0005 wt %,–,–,–
CCCCCCCCCCCCC(CCCC(CCCCCCCCCCCC)(CO[C@@H]1OC(CO)[C@@H](O)C(O)C1O)CO[C@@H]1OC(CO)[C@@H](O)C(O)C1O)(CO[C@@H]1OC(CO)[C@@H](O)C(O)C1O)CO[C@@H]1OC(CO)[C@@H](O)C(O)C1O (stereo partly drawn) [TMG-A12],–,–,3.3 ± 0.09 nm,substantially higher substrate-binding ability of the transporter than DDM; also recorded: well maintained for 10 days,~0.010 mM,~0.0012 wt %,almost all MelBSt was successfully extracted,excellent protein extraction efficiency was able to be confirmed,–
CCCCCCCCCCCCCC(CCCC(CCCCCCCCCCCCC)(CO[C@@H]1OC(CO)[C@@H](O)C(O)C1O)CO[C@@H]1OC(CO)[C@@H](O)C(O)C1O)(CO[C@@H]1OC(CO)[C@@H](O)C(O)C1O)CO[C@@H]1OC(CO)[C@@H](O)C(O)C1O (stereo partly drawn) [TMG-A13],superior to DDM in terms of long-term maintenance of binding between the receptor and the ligand,excellent effect of stabilizing transporter folding,3.6 ± 0.16 nm,–,~0.006 mM,~0.0007 wt %,–,–,as effective as DDM
CCCCCCCCCCCCCCC(CCCC(CCCCCCCCCCCCCC)(CO[C@@H]1OC(CO)[C@@H](O)C(O)C1O)CO[C@@H]1OC(CO)[C@@H](O)C(O)C1O)(CO[C@@H]1OC(CO)[C@@H](O)C(O)C1O)CO[C@@H]1OC(CO)[C@@H](O)C(O)C1O (stereo partly drawn) [TMG-A14],superior to DDM in terms of long-term maintenance of binding between the receptor and the ligand,excellent effect of stabilizing transporter folding,3.8 ± 0.10 nm,–,~0.004 mM,~0.0005 wt %,–,–,–
CCCCCCCCCCCCCOCC(CO[C@@H]1OC(CO)[C@@H](O)C(O)C1O)(CO[C@@H]1OC(CO)[C@@H](O)C(O)C1O)CSCC(COCCCCCCCCCCCCC)(CO[C@@H]1OC(CO)[C@@H](O)C(O)C1O)CO[C@@H]1OC(CO)[C@@H](O)C(O)C1O (stereo partly drawn) [TMG-T13],superior to DDM in terms of long-term maintenance of binding between the receptor and the ligand,excellent effect of stabilizing transporter folding,3.3 ± 0.08 nm,a better characteristic than DDM,~0.006 mM,~0.0008 wt %,–,–,as effective as DDM
